Results published in ChEMBL document CHEMBL1145436, “Design and synthesis of 6-methyl-2-oxo-1,2,3,4-tetrahydro-pyrimidine-5-carboxylic acid derivatives as PPARgamma activators” (Bioorg Med Chem Lett, 2007).

target: T1, Peroxisome proliferator-activated receptor gamma (Homo sapiens, UniProt P37231)
T1 sequence (P37231 whole entry): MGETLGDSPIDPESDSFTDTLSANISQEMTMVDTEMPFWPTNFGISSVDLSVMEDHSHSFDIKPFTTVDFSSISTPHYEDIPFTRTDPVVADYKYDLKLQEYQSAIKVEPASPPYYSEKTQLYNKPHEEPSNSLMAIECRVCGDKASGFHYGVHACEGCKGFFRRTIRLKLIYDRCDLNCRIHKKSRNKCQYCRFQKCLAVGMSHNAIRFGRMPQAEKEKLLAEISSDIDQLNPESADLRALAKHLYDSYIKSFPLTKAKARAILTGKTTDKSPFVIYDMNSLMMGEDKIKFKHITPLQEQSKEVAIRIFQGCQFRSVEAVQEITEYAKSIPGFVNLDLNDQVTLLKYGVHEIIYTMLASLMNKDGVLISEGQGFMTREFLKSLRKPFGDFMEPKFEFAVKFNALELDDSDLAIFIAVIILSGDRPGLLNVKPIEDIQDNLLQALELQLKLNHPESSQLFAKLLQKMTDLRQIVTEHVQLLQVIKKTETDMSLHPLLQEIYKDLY
Description: Displacement of [3H]rosiglitazone from PPAR gamma

`CC1=C(C(=O)O)C(c2ccc(OCCn3c4ccccc4c4ccccc43)cc2)NC(=O)N1` (centres undefined) and `COc1cccc2c1c1ccccc1n2CCOc1ccc(C2NC(=O)NC(C)=C2C(=O)O)cc1` (centres undefined) are within 1.5-fold of each other in IC50: 900 nM for the first, 800 nM for the second.

`COc1cc(C2NC(=O)NC(C)=C2C(=O)O)ccc1OCCn1c2ccccc2c2ccccc21` (centres undefined) and `COc1cc(C2NC(=O)NC(C)=C2C(=O)O)ccc1OCCOc1cc(C)nc2ccccc12` (centres undefined) are within 1.5-fold of each other in IC50: 820 nM for the first, 940 nM for the second.

`CC1=C(C(=O)O)C(c2ccc(OCCOc3cccc4[nH]c5ccccc5c34)cc2)NC(=O)N1` (centres undefined) and `CC1=C(C(=O)O)C(c2ccc(OCCCOc3cccc4[nH]c5ccccc5c34)cc2)NC(=O)N1` (centres undefined) are within 1.5-fold of each other in IC50: 1000 nM for the first, 900 nM for the second.

`CC1=C(C(=O)O)C(c2ccc(OCCOc3cccc4ccc(C)nc34)cc2)NC(=O)N1` (centres undefined) and `COc1cc(C2NC(=O)NC(C)=C2C(=O)O)ccc1OCCOc1cccc2ccc(C)nc12` (centres undefined) are within 1.5-fold of each other in IC50: 600 nM for the first, 800 nM for the second.

`CC1=C(C(=O)O)C(c2ccc(OCCn3ccc4cccnc43)cc2)NC(=O)N1` (centres undefined) and `CC1=C(C(=O)O)C(c2ccc(OCCCn3ccc4cccnc43)cc2)NC(=O)N1` (centres undefined) are within 1.5-fold of each other in IC50: 1000 nM for the first, 750 nM for the second.

`COc1cc(C2NC(=O)NC(C)=C2C(=O)O)ccc1OCCn1ccc2cccnc21` (centres undefined) and `CC1=C(C(=O)O)C(c2ccc(OCCOc3cc(C)nc4ccccc34)cc2)NC(=O)N1` (centres undefined) are within 1.5-fold of each other in IC50: 720 nM for the first, 760 nM for the second.

`CC1=C(C(=O)O)C(c2ccc(OCCCOc3cc(C)nc4ccccc34)cc2)NC(=O)N1` (centres undefined) and `CC1=C(C(=O)O)C(c2ccc(OCCOc3ccc(C(=O)c4ccc(Cl)cc4)cc3)cc2)NC(=O)N1` (centres undefined) are within 1.5-fold of each other in IC50: 750 nM for the first, 930 nM for the second.
